Like-named read-outs stand apart in the source and are kept apart here.
Key:
[1] = target: T1, PDK1 (Homo sapiens, UniProt O15530); test: Test for the inhibition of PDK1 (flashplate, 33P-ATP); type: biochemical; details: His6-PDK1 3.4 nM, 4 μM ATP, 30° C., 60 min
T1 construct: His6 (N)
T1 sequence (O15530 51-556 limits assumed): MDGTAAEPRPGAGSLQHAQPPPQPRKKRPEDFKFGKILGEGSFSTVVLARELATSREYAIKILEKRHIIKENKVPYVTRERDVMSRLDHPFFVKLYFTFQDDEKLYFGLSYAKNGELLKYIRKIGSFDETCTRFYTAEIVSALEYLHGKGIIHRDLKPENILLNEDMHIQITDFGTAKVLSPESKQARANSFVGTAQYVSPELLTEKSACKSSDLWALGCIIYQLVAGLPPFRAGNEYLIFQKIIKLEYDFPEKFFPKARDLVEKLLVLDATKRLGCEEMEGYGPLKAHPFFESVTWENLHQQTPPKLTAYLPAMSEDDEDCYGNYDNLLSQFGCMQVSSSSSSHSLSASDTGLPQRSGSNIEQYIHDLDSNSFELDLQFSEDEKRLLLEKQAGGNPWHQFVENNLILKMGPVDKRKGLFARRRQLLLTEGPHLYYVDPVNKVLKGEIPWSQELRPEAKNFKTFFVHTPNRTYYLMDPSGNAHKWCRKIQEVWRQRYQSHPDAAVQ
Procedure, shortened: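 His6-PDK1(1-50) (3.4 nM) and a biotinylated peptide substrate (400 nM) were incubated 60 min at 30° C with 4 μM ATP containing ^33P-ATP and test compound. Incorporated radioactivity was counted after subtracting a 100 nM staurosporine blank and expressed as % of control; IC50 derived from these.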

[2] = tested on: PDK1 kinase activity (phospho-T308-PKB) in PC3 cells; test: Cellular testing of PDK1 kinase inhibitors in PC3 cells (Luminex, phospho-T308-PKB); type: cell-based; details: 30 min incubation, serum-free, read-out: IC50 PC3 cells [P-PKB T308]
Protocol: Method for the Cellular Testing of PDK1 Kinase Inhibitors in PC3 Cells.
The cellular assay for the determination of the PDK1 kinase activity is carried out as a Luminex assay in the 96-well format. PC3 cells are shown at 20,000 cells per well in 100 μl of medium (45% of […]/45% of Ham's F12/10% of FCS) and incubated on the following day for 30 min with a serial dilution of the test substance (7 concentrations) under serum-free conditions. The cells are subsequently lysed using 90 μl of lysis buffer (20 mM tris/HCl pH 8.0, 150 mM NaCl, 1% of NP40, 10% of glycerol, 1% of phosphatase inhibitor I, 1% of phosphatase inhibitor II, 0.1% of protease inhibitor cocktail III, 0.01% of benzonase) per well, and the lysates are separated off from insoluble cell constituents by means of centrifugation through a 96-well filter plate (0.65 μm). The lysates are incubated overnight at 4° C. with shaking with Luminex beads to which an anti-total PKB antibody is coupled. The detection is carried out on the following day by addition of a phospho-T308-PKB antibody and a species-specific peroxidase-labelled secondary antibody. The detection of phospho-T308-PKB is carried out by measurement in a Luminex100 instrument by determination of 100 events per cavity in a measurement time of 60 sec. As pharmacological blank, the signals obtained from cells which have been treated with 10 μM staurosporin are subtracted from all other batches. The control value used for maximum phosphorylation of PKB on T308 are the signals from cells which have only been treated with the solvent (0.3% of DMSO). The values of the batches treated with test substance are calculated therefrom as percentage of control, and IC50 values are determined by means of RS1.

Structure (SMILES): Cn1cc(-c2cnc3[nH]cc(-c4cc(C(C)(O)c5ccncc5)nc(N)n4)c3c2)cn1 (single isomer, unassigned) [A41, 1-{2-amino-6-[5-(1-methyl-1H-pyrazol-4-yl)-1H-pyrrolo[2,3-b]pyridin-3-yl]-pyrimidin-4-yl}-1-pyridin-4-ylethanol]
- IC50 [1]: 3.4 nM
- IC50 ([2]; Homo sapiens, PC-3, 0.5 h): 980 nM

Structure (SMILES): Cn1cc(-c2cnc3[nH]cc(-c4cc(C(C)(O)c5ccncc5)nc(N)n4)c3c2)cn1 (single isomer, unassigned) [A42, 1-{2-amino-6-[5-(1-methyl-1H-pyrazol-4-yl)-1H-pyrrolo[2,3-b]pyridin-3-yl]-pyrimidin-4-yl}-1-pyridin-4-ylethanol]
- IC50 [1]: 3.2 nM
- IC50 [2]: 950 nM

Structure (SMILES): CC[C@](O)(c1ccncc1)c1cc(-c2c[nH]c3ncc(-c4cnn(CC(=O)N5CCCCC5)c4)cc23)nc(N)n1 (single isomer, unassigned) [A45]
- IC50 [1]: 8 nM
- IC50 ([2]; Homo sapiens, PC-3, 0.5 h): 348 nM

Structure (SMILES): Cn1cc(-c2cnc3[nH]cc(-c4cc(C(C)(O)c5ccccc5F)nc(N)n4)c3c2)cn1 (single isomer, unassigned) [A103, 1-{2-amino-6-[5-(1-methyl-1H-pyrazol-4-yl)-1H-pyrrolo[2,3-b]pyridin-3-yl]-pyrimidin-4-yl}-1-(2-fluorophenyl)ethanol]
- IC50 [1]: 10 nM
- IC50 ([2]; Homo sapiens, PC-3, 0.5 h): 61 nM

Structure (SMILES): Cn1cc(-c2cnc3[nH]cc(-c4cc(C(C)(O)c5ccccc5F)nc(N)n4)c3c2)cn1 (single isomer, unassigned) [A104, 1-{2-amino-6-[5-(1-methyl-1H-pyrazol-4-yl)-1H-pyrrolo[2,3-b]pyridin-3-yl]-pyrimidin-4-yl}-1-(2-fluorophenyl)ethanol]
- IC50 [1]: 16 nM
- IC50 [2]: 41 nM

Structure (SMILES): CC[C@@](O)(c1ccc(F)cc1)c1cc(-c2c[nH]c3ncc(-c4cnn(C)c4)cc23)nc(N)n1 (single isomer, unassigned) [A121]
- IC50 [1]: 48 nM
- IC50 ([2]; Homo sapiens, PC-3, 0.5 h): 18 nM

Structure (SMILES): CC[C@](O)(c1ccc(F)cc1)c1cc(-c2c[nH]c3ncc(-c4cnn(C)c4)cc23)nc(N)n1 (single isomer, unassigned) [A122]
- IC50 [1]: 71 nM
- IC50 ([2]; Homo sapiens, PC-3, 0.5 h): 18 nM

Structure (SMILES): Cn1cc(-c2cnc3[nH]cc(-c4cc([C@@](O)(c5ccccc5)C(F)(F)F)nc(N)n4)c3c2)cn1 (single isomer, unassigned) [A123]
- IC50 [1]: 78 nM
- IC50 ([2]; Homo sapiens, PC-3, 0.5 h): 250 nM

Structure (SMILES): Cn1cc(-c2cnc3[nH]cc(-c4cc([C@](O)(c5ccccc5)C(F)(F)F)nc(N)n4)c3c2)cn1 (single isomer, unassigned) [A124]
- IC50 [1]: 170 nM
- IC50 ([2]; Homo sapiens, PC-3, 0.5 h): 48 nM

Structure (SMILES): CC[C@](O)(c1cc(-c2c[nH]c3ncc(-c4cnn(C)c4)cc23)nc(N)n1)c1cccc(F)c1F (single isomer, unassigned) [A125]
- IC50 [1]: 7.9 nM
- IC50 ([2]; Homo sapiens, PC-3, 0.5 h): 14 nM

Structure (SMILES): CC[C@@](O)(c1cc(-c2c[nH]c3ncc(-c4cnn(C)c4)cc23)nc(N)n1)c1cccc(F)c1F (single isomer, unassigned) [A126]
- IC50 [1]: 66 nM
- IC50 ([2]; Homo sapiens, PC-3, 0.5 h): 2 nM

Structure (SMILES): CC(C)[C@@](O)(c1ccccc1)c1cc(-c2c[nH]c3ncc(-c4cnn(C)c4)cc23)nc(N)n1 (single isomer, unassigned) [A127]
- IC50 [1]: 28 nM
- IC50 ([2]; Homo sapiens, PC-3, 0.5 h): 11 nM

Structure (SMILES): CC(C)[C@](O)(c1ccccc1)c1cc(-c2c[nH]c3ncc(-c4cnn(C)c4)cc23)nc(N)n1 (single isomer, unassigned) [A128]
- IC50 [1]: 260 nM
- IC50 ([2]; Homo sapiens, PC-3, 0.5 h): 470 nM

Structure (SMILES): CCC[C@@](O)(c1cc(-c2c[nH]c3ncc(-c4cnn(C)c4)cc23)nc(N)n1)c1ccccc1F (single isomer, unassigned) [A129]
- IC50 [1]: 16 nM
- IC50 ([2]; Homo sapiens, PC-3, 0.5 h): 7 nM

Structure (SMILES): CCC[C@](O)(c1cc(-c2c[nH]c3ncc(-c4cnn(C)c4)cc23)nc(N)n1)c1ccccc1F (single isomer, unassigned) [A130]
- IC50 [1]: 71 nM
- IC50 ([2]; Homo sapiens, PC-3, 0.5 h): 18 nM

Structure (SMILES): CC[C@](O)(c1cc(-c2c[nH]c3ncc(-c4cnn(C)c4)cc23)nc(N)n1)c1ccncc1F (single isomer, unassigned) [A131]
- IC50 [1]: 3.8 nM
- IC50 ([2]; Homo sapiens, PC-3, 0.5 h): 11 nM

Structure (SMILES): CC[C@@](O)(c1cc(-c2c[nH]c3ncc(-c4cnn(C)c4)cc23)nc(N)n1)c1ccncc1F (single isomer, unassigned) [A132]
- IC50 [1]: 32 nM
- IC50 ([2]; Homo sapiens, PC-3, 0.5 h): 140 nM

Structure (SMILES): CCC[C@](O)(c1ccncc1)c1cc(-c2c[nH]c3ncc(-c4cnn(C)c4)cc23)nc(N)n1 (single isomer, unassigned) [A133]
- IC50 [1]: 48 nM
- IC50 ([2]; Homo sapiens, PC-3, 0.5 h): 1900 nM

Structure (SMILES): CCC[C@@](O)(c1ccncc1)c1cc(-c2c[nH]c3ncc(-c4cnn(C)c4)cc23)nc(N)n1 (single isomer, unassigned) [A134]
- IC50 [1]: 4.1 nM
- IC50 ([2]; Homo sapiens, PC-3, 0.5 h): 280 nM

Structure (SMILES): CC[C@](O)(c1ccccc1)c1cc(-c2c[nH]c3ncc(-c4cnn(CC(=O)N5CCCCC5)c4)cc23)nc(N)n1 (single isomer, unassigned) [A135]
- IC50 [1]: 6.9 nM
- IC50 ([2]; Homo sapiens, PC-3, 0.5 h): 34 nM

Structure (SMILES): CC[C@@](O)(c1ccccc1)c1cc(-c2c[nH]c3ncc(-c4cnn(CC(=O)N5CCCCC5)c4)cc23)nc(N)n1 (single isomer, unassigned) [A136]
- IC50 [1]: 210 nM
- IC50 ([2]; Homo sapiens, PC-3, 0.5 h): 870 nM

Structure (SMILES): Cn1cc(-c2cnc3[nH]cc(-c4cc([C@@](C)(O)c5cccc(Cl)c5F)nc(N)n4)c3c2)cn1 (single isomer, unassigned) [A137]
- IC50 [1]: 28 nM
- IC50 ([2]; Homo sapiens, PC-3, 0.5 h): 14 nM

Structure (SMILES): Cn1cc(-c2cnc3[nH]cc(-c4cc([C@](C)(O)c5cccc(Cl)c5F)nc(N)n4)c3c2)cn1 (single isomer, unassigned) [A138]
- IC50 [1]: 39 nM
- IC50 ([2]; Homo sapiens, PC-3, 0.5 h): 8900 nM

Structure (SMILES): COCO[C@](C)(c1ccncc1)c1cc(-c2c[nH]c3ncc(Br)cc23)nc(N)n1 (single isomer, unassigned) [A139]
- IC50 [1]: 210 nM
- IC50 ([2]; Homo sapiens, PC-3, 0.5 h): 7000 nM

Structure (SMILES): COCO[C@@](C)(c1ccncc1)c1cc(-c2c[nH]c3ncc(Br)cc23)nc(N)n1 (single isomer, unassigned) [A140]
- IC50 [1]: 220 nM
- IC50 ([2]; Homo sapiens, PC-3, 0.5 h): 8900 nM

Structure (SMILES): CC(O)(c1ccccc1)c1cc(-c2c[nH]c3ncc(-c4cnn(C5CCNCC5)c4)cc23)nc(N)n1 (stereo not drawn) [A13, 1-{2-amino-6-[5-(1-piperidin-4-yl-1H-pyrazol-4-yl)-1H-pyrrolo[2,3-b]pyridin-3-yl]pyrimidin-4-yl}-1-phenylethanol]
- IC50 [1]: 530 nM
- IC50 ([2]; Homo sapiens, PC-3, 0.5 h): 1200 nM

Structure (SMILES): COCOC(C)(c1cc(-c2c[nH]c3ncc(-c4cnn(C)c4)cc23)nc(N)n1)c1ccccc1C (stereo not drawn) [A18, 4-(1-methoxymethoxy-1-o-tolylethyl)-6-[5-(1-methyl-1H-pyrazol-4-yl)-1H-pyrrolo[2,3-b]pyridin-3-yl]pyrimidin-2-ylamine]
- IC50 [1]: 32 nM
- IC50 ([2]; Homo sapiens, PC-3, 0.5 h): 69 nM

Structure (SMILES): CCCC(O)(c1ccncc1)c1cc(-c2c[nH]c3ncc(-c4cnn(C)c4)cc23)nc(N)n1 (stereo not drawn) [A35, 1-{2-amino-6-[5-(1-methyl-1H-pyrazol-4-yl)-1H-pyrrolo[2,3-b]pyridin-3-yl]-pyrimidin-4-yl}-1-pyridin-4-ylbutan-1-ol]
- IC50 [1]: 3 nM
- IC50 ([2]; Homo sapiens, PC-3, 0.5 h): 210 nM

Structure (SMILES): CCC(O)(c1ccncc1)c1cc(-c2c[nH]c3ncc(-c4cnn(CC(=O)N5CCCCC5)c4)cc23)nc(N)n1 (stereo not drawn) [A50, 2-(4-{3-[2-amino-6-(1-hydroxy-1-pyridin-4-ylpropyl)pyrimidin-4-yl]-1H-pyrrolo[2,3-b]pyridin-5-yl}pyrazol-1-yl)-1-piperidin-1-ylethanone]
- IC50 [1]: 4 nM
- IC50 ([2]; Homo sapiens, PC-3, 0.5 h): 519 nM

Structure (SMILES): Cn1cc(-c2cnc3[nH]cc(-c4cc(C(C)(O)c5ccnnc5)nc(N)n4)c3c2)cn1 (stereo not drawn) [A109, 1-{2-amino-6-[5-(1-methyl-1H-pyrazol-4-yl)-1H-pyrrolo[2,3-b]pyridin-3-yl]-pyrimidin-4-yl}-1-pyridazin-4-ylethanol]
- IC50 [1]: 7.8 nM

Structure (SMILES): Cn1cc(-c2cnc3[nH]cc(-c4cc(C(C)(O)c5ccc(=O)[nH]c5)nc(N)n4)c3c2)cn1 (stereo not drawn) [A111, 5-(1-{2-amino-6-[5-(1-methyl-1H-pyrazol-4-yl)-1H-pyrrolo[2,3-b]pyridin-3-yl]-pyrimidin-4-yl}-1-hydroxyethyl)-1H-pyridin-2-one]
- IC50 [1]: 26 nM

Reference: US8575163B2, “Pyrrolopyridinylpyrimidin-2-ylamine derivatives” (Merck Patent GmbH, priority 2009, dated 2013)
